Tests used:
GSPT1 = assay: Western blot, degradation of substrate protein in hPBMCs; assay type: cell-based, Human
CK1α = molecular target: T1, CK1α (Homo sapiens, UniProt P48729+Q96SW2); assay: as above; assay type: cell-based
T1 construct: effects of the compounds of the present disclosure on the expression of target proteins in cells; endogenous in cells; host or cells: human PBMCs (Milecell Biotechnologies)

IKZF1 = molecular target: T2, IKZF1 (Homo sapiens, UniProt Q13422+Q96SW2); assay: as above; assay type: cell-based
T2 construct: effects of the compounds of the present disclosure on the expression of target proteins in cells; endogenous in cells; host or cells: human PBMCs (Milecell Biotechnologies)

WEE1 = molecular target: T3, WEE1 (Homo sapiens, UniProt P30291+Q96SW2); assay: as above; assay type: cell-based
T3 construct: effects of the compounds of the present disclosure on the expression of target proteins in cells; endogenous in cells; host or cells: human PBMCs (Milecell Biotechnologies)

IKZF2 = molecular target: T4, IKZF2 (Homo sapiens, UniProt Q96SW2+Q9UKS7); assay: as above; assay type: cell-based
T4 construct: effects of the compounds of the present disclosure on the expression of target proteins in cells; endogenous in cells; host or cells: human PBMCs (Milecell Biotechnologies)

IKZF3 = molecular target: T5, IKZF3 (Homo sapiens, UniProt Q96SW2+Q9UKT9); assay: as above; assay type: cell-based
T5 construct: effects of the compounds of the present disclosure on the expression of target proteins in cells; endogenous in cells; host or cells: human PBMCs (Milecell Biotechnologies)

[1] = system: Human multiple myeloma cell (MM.1S); assay: Tumor cell proliferation inhibition (CellTiter-Meiluncell luminescent cell viability assay); details: for inhibition at 0.01 µM / inhibition at 0.5 µM / IC50: Homo sapiens, MM1.S, 96 h; for inhibition at 0.01 µM: read-out: Inhibition Rate at 10 nM (%); for inhibition at 0.5 µM: read-out: Inhibition Rate at 500 nM (%); for Inhibition Rate at 500 nM (%): MM.1S, 96 hours; for IC50: read-out: Inhibitory activity (IC50, nM) on tumor cell proliferation, MM.1S
[2] = molecular target: T6, human Cereblon WT GST-tagged protein (Homo sapiens, UniProt Q96SW2); assay: CRBN-binding affinity, HTRF (CEREBLON BINDING kit); details: for IC50: CRBN binding, HTRF, 3 hours at room temperature, read-out: HTRF IC50; for inhibition at 0.5 µM: read-out: Inhibition Rate at 0.5 µM (%); for inhibition at 2 µM: read-out: Inhibition Rate at 2 µM (%)
T6 construct: purchased CISBIO 64BDCRBNPEH

[3] = 24 hours treatment, compounds at 50 nM and 500 nM (concentration behind the class not stated)
[4] = Western blot, 24 hours of compound treatment, compounds tested at 50 nM and 500 nM (concentration for the table not stated)

T6 sequence (Q96SW2 whole entry): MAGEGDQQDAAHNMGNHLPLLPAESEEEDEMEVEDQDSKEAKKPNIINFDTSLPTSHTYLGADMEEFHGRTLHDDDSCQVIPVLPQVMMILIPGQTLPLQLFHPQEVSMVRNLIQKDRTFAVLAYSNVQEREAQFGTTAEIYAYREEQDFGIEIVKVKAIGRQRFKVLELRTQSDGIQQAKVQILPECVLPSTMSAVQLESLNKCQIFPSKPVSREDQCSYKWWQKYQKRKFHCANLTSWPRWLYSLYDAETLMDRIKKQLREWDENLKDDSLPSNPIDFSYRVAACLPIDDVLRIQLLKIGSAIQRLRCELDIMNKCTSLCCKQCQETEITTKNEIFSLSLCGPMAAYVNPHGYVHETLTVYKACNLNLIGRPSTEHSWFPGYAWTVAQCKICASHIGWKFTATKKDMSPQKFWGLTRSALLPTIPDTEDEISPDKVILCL
T5 sequence (Q9UKT9 whole entry): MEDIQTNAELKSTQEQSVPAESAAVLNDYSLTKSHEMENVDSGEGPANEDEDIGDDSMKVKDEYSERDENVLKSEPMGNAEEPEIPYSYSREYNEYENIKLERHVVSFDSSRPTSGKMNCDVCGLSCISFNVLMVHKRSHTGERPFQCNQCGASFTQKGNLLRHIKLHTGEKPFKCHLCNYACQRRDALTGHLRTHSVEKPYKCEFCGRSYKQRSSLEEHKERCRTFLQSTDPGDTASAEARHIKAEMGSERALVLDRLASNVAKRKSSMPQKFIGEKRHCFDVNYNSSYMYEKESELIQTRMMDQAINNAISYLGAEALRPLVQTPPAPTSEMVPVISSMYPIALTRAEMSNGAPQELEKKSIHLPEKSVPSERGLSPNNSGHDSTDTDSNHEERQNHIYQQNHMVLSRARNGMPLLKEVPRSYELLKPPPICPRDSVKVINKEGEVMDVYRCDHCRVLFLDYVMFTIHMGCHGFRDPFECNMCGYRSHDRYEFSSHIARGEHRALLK
T5 sequence (Q96SW2 whole entry): as the sequence (Q96SW2 whole entry) above
T5 sequence (Q16531 whole entry partner): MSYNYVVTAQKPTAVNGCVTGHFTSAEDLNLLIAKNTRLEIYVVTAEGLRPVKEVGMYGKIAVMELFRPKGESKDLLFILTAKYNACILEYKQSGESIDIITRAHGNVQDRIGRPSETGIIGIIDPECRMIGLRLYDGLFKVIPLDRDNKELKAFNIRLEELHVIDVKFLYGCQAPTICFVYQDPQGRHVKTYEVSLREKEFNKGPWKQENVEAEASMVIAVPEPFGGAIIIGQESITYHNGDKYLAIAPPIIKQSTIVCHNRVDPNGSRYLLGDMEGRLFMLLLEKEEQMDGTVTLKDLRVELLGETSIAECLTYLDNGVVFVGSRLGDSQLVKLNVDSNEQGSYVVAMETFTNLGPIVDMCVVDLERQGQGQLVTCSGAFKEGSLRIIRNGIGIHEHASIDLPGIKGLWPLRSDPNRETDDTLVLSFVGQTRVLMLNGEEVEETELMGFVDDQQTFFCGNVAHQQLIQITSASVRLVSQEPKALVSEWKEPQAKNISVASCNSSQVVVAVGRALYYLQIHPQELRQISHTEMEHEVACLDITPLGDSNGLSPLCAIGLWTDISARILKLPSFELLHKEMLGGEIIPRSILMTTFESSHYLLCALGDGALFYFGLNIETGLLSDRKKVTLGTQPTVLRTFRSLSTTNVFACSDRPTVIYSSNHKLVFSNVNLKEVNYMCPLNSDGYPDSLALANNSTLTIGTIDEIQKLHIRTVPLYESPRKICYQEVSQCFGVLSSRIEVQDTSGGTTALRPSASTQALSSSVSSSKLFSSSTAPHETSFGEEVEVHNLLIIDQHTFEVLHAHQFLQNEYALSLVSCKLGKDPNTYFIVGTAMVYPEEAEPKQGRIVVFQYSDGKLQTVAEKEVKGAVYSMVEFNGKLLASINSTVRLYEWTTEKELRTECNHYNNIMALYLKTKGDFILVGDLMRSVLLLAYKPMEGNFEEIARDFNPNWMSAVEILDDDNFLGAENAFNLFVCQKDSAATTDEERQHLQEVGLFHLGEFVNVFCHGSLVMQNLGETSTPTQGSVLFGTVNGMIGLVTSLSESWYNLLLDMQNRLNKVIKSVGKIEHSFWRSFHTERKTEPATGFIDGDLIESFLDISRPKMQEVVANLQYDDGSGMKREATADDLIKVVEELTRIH
T4 sequence (Q9UKS7 whole entry): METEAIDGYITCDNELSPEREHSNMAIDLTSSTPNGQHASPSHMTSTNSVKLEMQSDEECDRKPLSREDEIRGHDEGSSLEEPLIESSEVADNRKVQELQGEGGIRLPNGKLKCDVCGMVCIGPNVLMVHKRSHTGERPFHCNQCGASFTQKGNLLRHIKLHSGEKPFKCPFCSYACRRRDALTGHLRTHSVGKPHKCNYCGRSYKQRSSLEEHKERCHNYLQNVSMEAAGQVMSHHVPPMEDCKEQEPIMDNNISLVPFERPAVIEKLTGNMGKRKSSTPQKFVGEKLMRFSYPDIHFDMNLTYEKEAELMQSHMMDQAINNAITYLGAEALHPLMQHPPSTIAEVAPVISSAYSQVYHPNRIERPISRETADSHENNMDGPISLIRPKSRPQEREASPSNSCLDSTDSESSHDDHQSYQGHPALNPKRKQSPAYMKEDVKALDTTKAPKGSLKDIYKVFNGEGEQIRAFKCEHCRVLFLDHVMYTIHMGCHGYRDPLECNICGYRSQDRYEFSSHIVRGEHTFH
T4 sequence (Q96SW2 whole entry): as the sequence (Q96SW2 whole entry) above
T4 sequence (Q16531 whole entry partner): as the sequence (Q16531 whole entry partner) above
T3 sequence (P30291 whole entry): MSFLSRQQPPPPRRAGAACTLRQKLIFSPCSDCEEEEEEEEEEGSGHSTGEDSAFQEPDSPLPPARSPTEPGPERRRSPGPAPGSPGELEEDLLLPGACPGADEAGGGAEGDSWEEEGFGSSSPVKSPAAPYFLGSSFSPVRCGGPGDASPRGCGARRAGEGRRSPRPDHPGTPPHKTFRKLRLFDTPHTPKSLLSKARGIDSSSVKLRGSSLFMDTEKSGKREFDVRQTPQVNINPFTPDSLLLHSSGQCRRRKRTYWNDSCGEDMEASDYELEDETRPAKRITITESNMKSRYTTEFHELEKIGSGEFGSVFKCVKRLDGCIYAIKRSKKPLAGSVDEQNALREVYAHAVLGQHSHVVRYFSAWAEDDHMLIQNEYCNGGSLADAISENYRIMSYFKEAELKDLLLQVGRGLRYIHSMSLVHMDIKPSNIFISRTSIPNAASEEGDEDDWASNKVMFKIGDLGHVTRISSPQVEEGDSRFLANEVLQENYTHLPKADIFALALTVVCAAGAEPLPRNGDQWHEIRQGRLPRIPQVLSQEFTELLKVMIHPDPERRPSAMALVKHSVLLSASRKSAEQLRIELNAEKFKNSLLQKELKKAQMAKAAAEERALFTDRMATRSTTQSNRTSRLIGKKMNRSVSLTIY
T3 sequence (Q96SW2 whole entry): as the sequence (Q96SW2 whole entry) above
T3 sequence (Q16531 whole entry partner): as the sequence (Q16531 whole entry partner) above
T2 sequence (Q13422 whole entry): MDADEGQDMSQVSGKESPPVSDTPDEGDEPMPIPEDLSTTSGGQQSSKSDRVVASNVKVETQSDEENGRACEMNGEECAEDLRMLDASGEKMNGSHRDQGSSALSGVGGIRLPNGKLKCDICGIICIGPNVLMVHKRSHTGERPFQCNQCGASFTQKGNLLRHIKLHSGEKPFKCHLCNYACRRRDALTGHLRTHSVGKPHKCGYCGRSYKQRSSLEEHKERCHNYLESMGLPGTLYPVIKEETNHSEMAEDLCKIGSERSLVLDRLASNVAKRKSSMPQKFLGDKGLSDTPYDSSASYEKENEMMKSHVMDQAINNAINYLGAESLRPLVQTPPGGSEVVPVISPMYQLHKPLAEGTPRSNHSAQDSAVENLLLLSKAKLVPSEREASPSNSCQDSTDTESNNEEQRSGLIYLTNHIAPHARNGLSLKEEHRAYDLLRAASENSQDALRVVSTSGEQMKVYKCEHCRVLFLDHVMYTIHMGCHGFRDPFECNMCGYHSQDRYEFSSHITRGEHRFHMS
T2 sequence (Q96SW2 whole entry): as the sequence (Q96SW2 whole entry) above
T2 sequence (Q16531 whole entry partner): as the sequence (Q16531 whole entry partner) above
T1 sequence (P48729 whole entry): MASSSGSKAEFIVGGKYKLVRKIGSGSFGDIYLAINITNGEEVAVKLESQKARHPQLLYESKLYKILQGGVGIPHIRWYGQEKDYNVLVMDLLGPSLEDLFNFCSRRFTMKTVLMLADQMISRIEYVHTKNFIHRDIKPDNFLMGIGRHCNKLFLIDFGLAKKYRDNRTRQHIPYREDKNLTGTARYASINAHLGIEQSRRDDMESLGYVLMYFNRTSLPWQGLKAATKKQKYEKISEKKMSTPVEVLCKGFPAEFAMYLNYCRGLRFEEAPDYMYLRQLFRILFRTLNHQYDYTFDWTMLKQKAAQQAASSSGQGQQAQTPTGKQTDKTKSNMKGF
T1 sequence (Q96SW2 whole entry): as the sequence (Q96SW2 whole entry) above
T1 sequence (Q16531 whole entry partner): as the sequence (Q16531 whole entry partner) above

Row | Compound | GSPT1 substrate protein remaining % (GSPT1; [3]) | CK1α substrate protein remaining % (CK1α; [3]) | IKZF 1 substrate protein remaining % (IKZF1; [3]) | Wee1 substrate protein remaining % (WEE1; [3]) | IKZF2 substrate protein remaining % (IKZF2; [3]) | IKZF3 substrate protein remaining % (IKZF3; [3]) | inhibition at 0.01 µM [1] [%] | inhibition at 0.5 µM [1] [%] | IC50 [2] [nM] | GSPT1 substrate protein remaining % (GSPT1; [4]) | CK1α substrate protein remaining % (CK1α; [4]) | IKZF 1 substrate protein remaining % (IKZF1; [4]) | Wee1 substrate protein remaining % (WEE1; [4]) | IKZF2 substrate protein remaining % (IKZF2; [4]) | IKZF3 substrate protein remaining % (IKZF3; [4]) | Inhibition Rate at 500 nM (%) [1] | inhibition at 0.5 µM [2] [%] | inhibition at 2 µM [2] [%] | IC50 [1] [nM]
1 | O=C1CC[C@H](N2Cc3c(OCc4ccc(CN5CCOCC5)cc4)cccc3C2=S)C(=O)N1 [GT-05712, (S)-3-(4-((4-(morpholinomethyl)benzyl)oxy)-1-thioxoisoindolin-2-yl)piperidine-2,6-dione] | A (0% ≤ substrate protein remaining % ≤ 80%) | B (80%< substrate protein remaining %≤ 100%) | A (0% ≤ substrate protein remaining % ≤ 80%) | B (80%< substrate protein remaining %≤ 100%) | B (80%< substrate protein remaining %≤ 100%) | A (0% ≤ substrate protein remaining % ≤ 80%) | 50 to 60 | 70 to 80 | < 100 |  |  |  |  |  |  |  |  |  | 
2 | O=C1CCC(N2Cc3c(CN4CC=C(c5ncccc5F)CC4)cccc3C2=S)C(=O)N1 (stereo not shown) [GT-08463, 3-(4-((3-fluoro-3',6'-dihydro-[2,4'-bipyridin]-1'(2'H)-yl)methyl)-1-thioxoisoindolin-2-yl)piperidine-2,6-dione] |  |  |  |  |  |  | 40 to 50 |  |  | A (0% ≤ substrate protein remaining % ≤ 80%) | B (80%< substrate protein remaining %≤ 100%) | B (80%< substrate protein remaining %≤ 100%) | A (0% ≤ substrate protein remaining % ≤ 80%) | B (80%< substrate protein remaining %≤ 100%) | B (80%< substrate protein remaining %≤ 100%) | la5 | 53 to 60 | 60 to 80 | 
3 | O=C1CCC(N2Cc3c(CN4CC5CC(C4)N5c4cccc(Cl)c4Cl)cccc3C2=S)C(=O)N1 (stereo not shown) [GT-08466, 3-(4-((6-(2,3-dichlorophenyl)-3,6-diazabicyclo[3.1.1]heptan-3-yl)methyl)-1-thioxoisoindolin-2-yl)piperidine-2,6-dione] |  |  |  |  |  |  | 20 to 30 |  |  | A (0% ≤ substrate protein remaining % ≤ 80%) | B (80%< substrate protein remaining %≤ 100%) | B (80%< substrate protein remaining %≤ 100%) | B (80%< substrate protein remaining %≤ 100%) | A (0% ≤ substrate protein remaining % ≤ 80%) | B (80%< substrate protein remaining %≤ 100%) | la7 | 30 to 40 | 60 to 80 | 
4 | O=C1CCC(N2Cc3cc(CN4CCN(c5ccccc5Cl)CC4)ccc3C2=S)C(=O)N1 (stereo not shown) [GT-08241, 3-(5-((4-(2-chlorophenyl)piperazin-1-yl)methyl)-1-thioxoisoindolin-2-yl)piperidine-2,6-dione] |  |  |  |  |  |  | 20 to 30 | 70 to 80 |  | A (0% ≤ substrate protein remaining % ≤ 80%) | B (80%< substrate protein remaining %≤ 100%) | B (80%< substrate protein remaining %≤ 100%) | B (80%< substrate protein remaining %≤ 100%) | B (80%< substrate protein remaining %≤ 100%) | B (80%< substrate protein remaining %≤ 100%) |  | 40 to 53 | 80 to 100 | 
5 | O=C1CCC(N2Cc3cc(CN4CCN(c5ccccc5Br)CC4)ccc3C2=S)C(=O)N1 (stereo not shown) [GT-08242, 3-(5-((4-(2-bromophenyl)piperazin-1-yl)methyl)-1-thioxoisoindolin-2-yl)piperidine-2,6-dione] |  |  |  |  |  |  | 30 to 40 |  |  | A (0% ≤ substrate protein remaining % ≤ 80%) | B (80%< substrate protein remaining %≤ 100%) | B (80%< substrate protein remaining %≤ 100%) | B (80%< substrate protein remaining %≤ 100%) | B (80%< substrate protein remaining %≤ 100%) | B (80%< substrate protein remaining %≤ 100%) | la8 | 40 to 53 | 80 to 100 | 
6 | O=C1CCC(N2Cc3cc(CN4CC=C(c5c[nH]c6ncccc56)CC4)ccc3C2=S)C(=O)N1 (stereo not shown) [GT-05248, 3-(5-((4-(1H-pyrrolo[2,3-b]pyridin-3-yl)-3,6-dihydropyridin-1(2H)-yl)methyl)-1-thioxoisoindolin-2-yl)piperidine-2,6-dione] |  |  |  |  |  |  |  |  | < 100 | A (0% ≤ substrate protein remaining % ≤ 80%) | B (80%< substrate protein remaining %≤ 100%) | A (0% ≤ substrate protein remaining % ≤ 80%) | A (0% ≤ substrate protein remaining % ≤ 80%) | A (0% ≤ substrate protein remaining % ≤ 80%) | A (0% ≤ substrate protein remaining % ≤ 80%) |  |  |  | 50 to 100
7 | O=C1CCC(N2Cc3cc(CN4CC5CC(C4)N5c4cccc(Cl)c4Cl)ccc3C2=S)C(=O)N1 (stereo not shown) [GT-08476, 3-(5-((6-(2,3-dichlorophenyl)-3,6-diazabicyclo[3.1.1]heptan-3-yl)methyl)-1-thioxoisoindolin-2-yl)piperidine-2,6-dione] |  |  |  |  |  |  | 5 to 10 | 40 to 50 |  | B (80%< substrate protein remaining %≤ 100%) | B (80%< substrate protein remaining %≤ 100%) | B (80%< substrate protein remaining %≤ 100%) | B (80%< substrate protein remaining %≤ 100%) | B (80%< substrate protein remaining %≤ 100%) | A (0% ≤ substrate protein remaining % ≤ 80%) |  | 60 to 80 | 80 to 100 | 
8 | O=C1CCC(N2Cc3cc(CN4CCC(N5CCc6cc(F)ccc65)CC4)ccc3C2=S)C(=O)N1 (stereo not shown) [GT-05244, 3-(5-((4-(5-fluoroindolin-1-yl)piperidin-1-yl)methyl)-1-thioxoisoindolin-2-yl)piperidine-2,6-dione] |  |  |  |  |  |  |  |  | 100 to 500 | A (0% ≤ substrate protein remaining % ≤ 80%) | B (80%< substrate protein remaining %≤ 100%) | B (80%< substrate protein remaining %≤ 100%) | B (80%< substrate protein remaining %≤ 100%) | A (0% ≤ substrate protein remaining % ≤ 80%) | B (80%< substrate protein remaining %≤ 100%) |  |  |  | 100 to 500
9 | O=C1CCC(N2Cc3c(CN4CCN(C(c5ccccc5)c5cccnc5)CC4)cccc3C2=S)C(=O)N1 (stereo not shown) [GT-08193, 3-(4-((4-(phenyl(pyridin-3-yl)methyl)piperazin-1-yl)methyl)-1-thioxoisoindolin-2-yl)piperidine-2,6-dione] |  |  |  |  |  |  | 30 to 40 | 40 to 50 |  | A (0% ≤ substrate protein remaining % ≤ 80%) | B (80%< substrate protein remaining %≤ 100%) | B (80%< substrate protein remaining %≤ 100%) | A (0% ≤ substrate protein remaining % ≤ 80%) | A (0% ≤ substrate protein remaining % ≤ 80%) | B (80%< substrate protein remaining %≤ 100%) |  | 30 to 40 | 53 to 60 | 
